{"source": "patent US20050059744A1", "about": "“Methods and compositions for the treatment of pain and other alpha 2 adrenergic-mediated conditions” (Allergan, Inc., priority 2003, published 2005)", "key": {"[1]": {"tested_on": "sulprostone-induced allodynia in mice", "experiment": "Sulprostone-induced allodynia mouse model, paint brush pain score", "type": "in vivo", "description": "Alternatively, allodynia can be induced in mice through intrathecal treatment of the animals with 200 ng sulprostone (prostaglandin E2 receptor agonist) in 50% DMSO and in a volume of 5 μl. In this model, the pain response to stroking the flank with a paint brush is scored 8 times over a 35 minute period starting 15 minutes following spinal administration of sulprostone. Minami et al., 57 Pain 217-223 (1994).\nThe compounds are formulated in approximately 0.01-5% DMSO and given in a volume of 1 ml/kg body weight for systemic dosing or 5 μl in saline for intrathecal dosing. Clonidine is tested at intrathecal doses ranging between 0.01 and 10.0 μg.\nAmitriptylene is dissolved in 50% DMSO at the indicated doses and injected in a volume of 5 ul intrathecally into each mouse, in conjunction with either a 30 ug/kg IP injection of 5-methylurapadil or with a similar injection of saline.\nExperimental procedure is the same as in Example 1, except both clonidine (various doses) and 5-methylurapidil (1 microgram intrathecal) are coadministered by intrathecal injection in a 50% DMSO vehicle and in a total volume of 5 microliters."}, "[2]": {"tested_on": "intraocular pressure of rabbit eyes", "experiment": "Normotensive intraocular pressure in rabbit eyes after topical instillation (pneumatonometer)", "type": "in vivo, New Zealand rabbits", "description": "Male New Zealand rabbits are used to evaluate drug effects on normotensive IOP measurements. The rabbits are carefully handled so as to minimize excitement. They should be picked up by the nape of the neck, with their hindlegs supported by the other hand. After removing the rabbit from its cage, approximately 25 ul of dilute Ophthetic® (0.05%) topical anesthesia is administered to each eye. An initial IOP determination is made in both eyes. Rabbits with 3 mmHg or greater difference in IOP between right and left eyes are replaced at this time.\nImmediately following the time zero (T=0) reading in both eyes, one eye of each experimental rabbit is instilled with an ophthalmic formulation of 0.1% (w/w) brimonidine tartrate onto the cornea of the randomly selected test eye. […] The other eye is given the vehicle containing no drug. The ophthalmic formulations comprise 50 ppm Purite® (stabilized chlorine dioxide), 0.5% carboxymethylcellulose, 0.6% (w/w) borate buffer (pH 7.7) and small amounts of salts (NaCl, KCl, CaCl2, MgCl2). Intraocular pressure of both treated (ipsalateral)and untreated (contralateral) eyes is measured at the indicated time intervals for seven hours. Pressure readings utilize a Model 30 Classic™ Pneumatonometer as the measuring and recording instrument. It measures intraocular pressure (IOP) non-invasively through applanation tonometry."}, "sedation": {"tested_on": "sedation", "experiment": "Clonidine sedative activity dose response with or without 5-methylurapadil (FIG. 2)", "conditions": "co-administration of 5-methyl urapidil 30 μg/kg intraperitoneal vs clonidine alone", "description": "(§1) To test sedation, six male Sprague-Dawley rats are given various doses of a clonidine intrathecal injection. Sedation is graded 30 minutes following administration of the drug by monitoring locomotor skills as follows. Rats are placed in a dark covered chamber and a digicom analyzer (Omnitech Electronic) quantitates their exploratory behavior for a five-minute period. The machine records each time the rat interrupts an array of 32 photoelectric beams in the X and Y orientation, and quantifies the difference in behavior as compared to control animals given saline instead of clonidine."}, "male Sprague-Dawley rats": {"tested_on": "male Sprague-Dawley rats", "conditions": "graded 30 minutes after administration", "description": "as §1"}, "[3]": {"tested_on": "Chung model of allodynic rats", "excerpt": "A model for chronic pain (in particular peripheral neuropathy) involves the surgical ligation of the L5 (and optionally the L6) spinal nerves on one side in experimental animals. Rats recovering from the surgery gain weight and display a level of general activity similar to that of normal rats. However, these rats develop abnormalities of the foot, wherein the hindpaw is moderately everted and the toes are held together. More importantly, the hindpaw on the side affected by the surgery appears to become sensitive to pain from low-threshold mechanical stimuli, such as that producing a faint sensation of touch in a human, within about 1 week following surgery. This sensitivity to normally non-painful touch is called “tactile allodynia” and lasts for at least two months. The response includes lifting the affected hindpaw to escape from the stimulus, licking the paw and holding it in the air for many seconds. None of these responses is normally seen in the control group.\nRats are anesthetized before surgery. The surgical site is shaved and prepared either with betadine or novacaine. Incision is made from the thoracic vertebra X111 down toward the sacrum. Muscle tissue is separated from the spinal vertebra (left side) at the L4-S2 levels. The L6 vertebra is located and the transverse process is carefully removed with a small rongeur to expose the L4-L6 spinal nerves. The L5 and L6 spinal nerves are isolated and tightly ligated with 6-0 silk thread. The same procedure is done on the right side as a control, except no ligation of the spinal nerves is performed.\nA complete hemostasis is confirmed, then the wounds are sutured. A small amount of antibiotic ointment is applied to the incised area, and the rat is transferred to the recovery plastic cage under a regulated heat-temperature lamp. […]\nIn the Chung rat model, tactile allodynia is measured prior to and 30 minutes after drug administration using von Frey hairs that are a series of fine hairs with incremental differences in stiffness. […]"}, "[4]": {"conditions": "0.1% brimonidine and 0.003% prazosin, FIG. 4D"}, "[5]": {"conditions": "35 microliters 0.003% prazosin instilled, FIG. 4A"}}, "note": "Like-named read-outs stand apart in the source and are kept apart here."}
{"smiles": "CN(C)CCC=C1c2ccccc2CCc2ccccc21", "note": "[Amitriptylene, amitriptylene]", "values": [{"measurement": "reduction in the dosage necessary to achieve maximal analgesia", "setting": "[1]; amitriptylene intrathecal with 30 ug/kg IP 5-methylurapadil vs with saline", "value": "approximately three"}]}
{"smiles": "Brc1c(NC2=NCCN2)ccc2nccnc12", "note": "[brimonidine]", "values": [{"measurement": "lowering of intraocular pressure", "setting": "[2]; 0.1% brimonidine alone, after the first 30 minutes, FIG. 4B", "value": "~30", "unit": "%"}, {"measurement": "initial change in intraocular pressure", "setting": "[2]; 0.1% brimonidine alone, within the first 30 minutes, FIG. 4B", "value": "pronounced increase"}, {"measurement": "initial change in intraocular pressure", "setting": "[2]; [4]", "value": "only a very small increase"}, {"measurement": "peak IOP lowering", "setting": "[2]; [4]", "value": "approximately 40%"}, {"measurement": "difference in intraocular pressure response vs brimonidine alone", "setting": "[2]; co-installation of 0.1% brimonidine and 0.001% prazosin, FIG. 4C", "value": "Little difference"}]}
{"smiles": "Clc1cccc(Cl)c1N=C1NCCN1", "note": "[clonidine]", "values": [{"measurement": "sedating dose", "setting": "sedation", "value": "unchanged"}, {"measurement": "sedation", "setting": "male Sprague-Dawley rats; intrathecal dose of 3.0 μg", "value": "mildly sedating"}, {"measurement": "sedation", "setting": "male Sprague-Dawley rats; intrathecal dose of 10 μg", "value": "maximal sedation"}, {"measurement": "analgesia", "setting": "[3]; intrathecal dose of 0.1 μg, allodynic rats", "value": "no analgesia"}, {"measurement": "analgesia", "setting": "[3]; intrathecal dose of 1.0 μg, allodynic rats", "value": "maximal analgesia"}, {"measurement": "analgesia", "setting": "[3]; rats, dose-dependence statement", "value": "analgesic"}, {"measurement": "shift of the effective analgesic dose lower vs clonidine alone", "setting": "[1]; 5-methyl urapidil 30 μg/kg intraperitoneal 5 minutes before clonidine", "value": 10, "unit": "fold"}, {"measurement": "analgesia", "setting": "[1]; clonidine 0.1 microgram intrathecal in the absence of prazosin", "value": "not analgesic"}, {"measurement": "analgesic results compared with intraperitoneal injection of the alpha 1 antagonist", "setting": "[1]; clonidine (various doses) and 5-methylurapidil 1 microgram coadministered intrathecally", "value": "substantially similar"}, {"measurement": "decrease in the EC50 for clonidine vs i.t. clonidine alone", "setting": "[1]; coadministration of prazosin 100 ng/kg intraperitoneal", "value": "four"}, {"measurement": "analgesia", "setting": "[1]; mice, dose-dependence statement", "value": "analgesic"}]}
{"smiles": "COc1cc2nc(N3CCN(C(=O)c4ccco4)CC3)nc(N)c2cc1OC", "note": "[prazosin]", "values": [{"measurement": "intraocular pressure compared to the untreated eye", "setting": "[2]; [5]", "value": "small initial drop"}, {"measurement": "return to baseline pressure", "setting": "[2]; [5]", "value": 2, "unit": "h"}]}
